# Experimental data taken from patent US20240050409A1, “Methods and Compositions for Treating Psychotic Disorders” (SOUND PHARMACEUTICALS INCORPORATED, priority 2014, published 2024).
# “Also recorded” adds a separate entry of the source.
# Legend:
# [1] = tested on: dopamine D2-dependent modulation of EPSPs in PFC pyramidal cells of NVHL rats; assay: Slice electrophysiology: D2 (quinpirole) modulation of EPSPs in PFC layer V pyramidal cells of NVHL rats; format: in vivo, Sprague-Dawley rats; details: adult NVHL rat PFC slices, quinpirole 5 μM; treatment during development
# Protocol: If juvenile oxidative stress is the cause of physiological anomalies observed in adult NVHL rats, NAC treatment can rescue these alterations. Whole-cell recordings were conducted from pyramidal neurons in adult brain slices containing the medial PFC of SHAM (n=12), NVHL (n=16), and NAC-treated NVHL rats (n=14). As previously shown in adult NVHL rats and other rodent models of schizophrenia (Niwa et al., 2010; Tseng et al., 2008), the dopamine D2-dependent modulation of excitatory postsynaptic potentials (EPSPs) in layer V pyramidal cells was lost in NVHL rats (as shown in FIGS. 13A-C). This loss is likely due to abnormal maturation of PFC interneurons, as the normal adult D2 modulation includes a GABA-A receptor component (Tseng and O'Donnell, 2007), but oxidative stress in pyramidal neurons may also play a role. To determine whether altered PVI-dependent PFC synaptic responses are due to oxidative stress, rats were treated with NAC during development and then tested for D2 modulation of PFC physiology.
# Antioxidant pretreatment regimen: NAC (BioAdvantexPharma, Mississauga, Ontario, Canada) was administered in the drinking water at 900 mg/l. NAC treatment started at P5 or at P35, and previous work in mice has shown that NAC consumed by the dam is transmitted to the pups through her milk (das Neves Duarte et al., 2012). NAC treatment ended at P50. […]
# [2] = tested on: perineuronal nets (PNN) in the PFC of NVHL rats; assay: WFA staining of perineuronal nets (PNN) around PVI in PFC of NVHL rats; format: in vivo, Sprague-Dawley rats; details: adult NVHL rats, juvenile treatment
# Excerpt: To determine the types of interneurons expressing oxidative stress in NVHL rats, 8-oxo-dG with PV, calbindin (CB) and calretinin (CR) was co-labeled. […] About 50% of PVI were co-labeled with 8-oxo-dG, indicating oxidative stress is pervasive in this cell population. A marker of PVI maturation is Wisteria Floribunda agglutinin (WFA), a lectin that recognizes the perineuronal nets (PNN) enwrapping mature cortical PVI. […] PVI may be highly exposed to increased oxidative stress because they make up the majority of fast-spiking interneurons and their high energy metabolism may generate more reactive oxygen species than non-fast spiking neurons.
# Antioxidant pretreatment regimen: NAC (BioAdvantexPharma, Mississauga, Ontario, Canada) was administered in the drinking water at 900 mg/l. NAC treatment started at P5 or at P35, and previous work in mice has shown that NAC consumed by the dam is transmitted to the pups through her milk (das Neves Duarte et al., 2012). NAC treatment ended at P50. Fresh solutions were prepared every 2-3 days. Ebselen (Sound Pharmaceuticals Inc., Seattle, WA) was administered i.p. 5 days a week starting at P35 until the day of PPI testing (P60). Stock ebselen solution (20 mg/ml DMSO, frozen aliquots) was diluted 1:5 in sterile water and administered at a dose of 10 mg/kg. Control animals received an equivalent concentration of DMSO diluted 1:5 in water. […]
smiles,measurement,setting,value
"CC(=O)N[C@@H](CS)C(=O)O [NAC, N-acetyl cysteine]",effect on lost D2 modulation (quinpirole attenuation) of EPSPs,[1],rescued; also recorded: reverses
same,effect on reduced WFA staining / WFA-positive PVI (PNN),[2],restored; also recorded: prevented
